Some test systems named below: M19-MEL; DLD-1; SNB-78; KM-20L2; LXFL 529; DMS-273; RXF 631; XF498; HOP-18.
Assay in all cases: NCI anticancer screen, dose series, 48 h

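Growth conditions: 96-well plates. Treatment: test compound, 48 hours, 5 concentrations. Analysis: linear interpolation between bracketing concentrations; unreached endpoints set to highest concentration. Abbreviation: GI50, concentration required for 50% inhibition of growth.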 Calls of active or inactive are those of the source. Rule as the data show it: active = GI50 up to about 1.1 µM and inactive = higher.

This note sets out measurements from ChEMBL document CHEMBL1201862, “PubChem BioAssay data set” (2004).

`CCNc1c(C(=O)N(CC)CC)c(=O)[nH]c2ncccc12`: the GI50 in the test with M19-MEL, in the test with DLD-1, in the test on SNB-78, in the test with KM-20L2, with LXFL 529 and in the test on DMS-273 was > 100 µM (inactive) throughout.
With `O=c1c2cc(Cl)ccc2sc2cccc(Cl)c12`, the GI50 with M19-MEL, in the test with SNB-78, with KM-20L2, with LXFL 529, in the test on RXF 631 and in the test with DMS-273 was > 100 µM (inactive) each time.
Turning to `COC(=O)CC(C(C(=O)OC)C(=O)OC)N1C(=O)OCC1c1ccccc1` (configuration not stated), the GI50 with M19-MEL, in the test on DLD-1, in the test on XF498, in the test with KM-20L2, in the test on LXFL 529 and with RXF 631 was > 100 µM (inactive) throughout. Further, in the test on DMS-273, the GI50 was 97.1 µM (inactive).
As to `O=c1nc(NC2CCCCO2)ccn1CCO` (configuration not stated), the GI50 with M19-MEL is > 100 µM (inactive); in the test on DLD-1, > 100 µM (inactive); with XF498, 51.4 µM (inactive); with SNB-78, > 100 µM (inactive); in the test with KM-20L2, > 100 µM (inactive); in the test with LXFL 529 it was > 100 µM (inactive). For the same compound, the GI50 in the test on HOP-18, in the test on RXF 631 and with DMS-273 was > 100 µM (inactive) each time.
Regarding `CCCCCCCCC/C=C1\CCC(CN2CCOCC2)C1=O` (configuration not stated), the GI50 in the test with M19-MEL was 3.28 µM (inactive); in the test with DLD-1, 1.96 µM (inactive); in the test on SNB-78, 4.29 µM (inactive); in the test on KM-20L2, 7.35 µM (inactive); in the test on LXFL 529, 1.6 µM (inactive); in the test on HOP-18, 1.54 µM (inactive). In addition, the GI50 with RXF 631 was 5.62 µM (inactive); in the test with DMS-273 it was 2.32 µM (inactive).
As for `COc1ccc(/C=C(\C(C)=O)C(=O)Nc2ccccc2)cc1`, the GI50 in the test with M19-MEL, with DLD-1, in the test with SNB-78, with LXFL 529 and with HOP-18 was > 100 µM (inactive) throughout.
For `CCN(CC)CC(O)CNc1ccc(NCC2CO2)c2c1C(=O)c1ccccc1C2=O` (configuration not stated), the GI50 with M19-MEL was 0.125 µM (active); with DLD-1, 1.9 µM (inactive); in the test on SNB-78, 0.398 µM (active); in the test with KM-20L2 it was 0.692 µM (active); in the test with LXFL 529, 0.0486 µM (active); with HOP-18, 16.6 µM (inactive). The GI50 was 0.272 µM (active) with RXF 631 and 0.242 µM (active) in the test with DMS-273.
On to `COc1ccc(NC(=O)C(=O)c2c(O)c3ccc(O)cc3oc2=O)c([N+](=O)[O-])c1`, for which the GI50 in the test with M19-MEL, with DLD-1, with KM-20L2, in the test with LXFL 529, in the test with RXF 631 and in the test on DMS-273 was > 100 µM (inactive) in each case.
`Cc1ccc([S+](c2ccccc2)c2cc(C)ccc2C)cc1.O=C(OC(C(=O)[O-])C(OC(=O)c1ccccc1)C(=O)O)c1ccccc1` (configuration not stated): the GI50 is 5.41 µM (inactive) in the test with M19-MEL; 14.6 µM (inactive) with DLD-1; 3.75 µM (inactive) in the test with XF498; 17.7 µM (inactive) in the test with SNB-78; 7.73 µM (inactive) in the test on KM-20L2; 12.3 µM (inactive) with HOP-18. Also, in the test with DMS-273, the GI50 was 1.89 µM (inactive).
For the compound `N#Cc1ccccc1NC(=O)/C(=N\Nc1ccc([N+](=O)[O-])cc1)C1C(=O)NC(=O)NC1=O`, the GI50 with M19-MEL, in the test on DLD-1, in the test with SNB-78, with KM-20L2 and in the test with LXFL 529 was > 100 µM (inactive) in each case.
`OC(C1CO1)C(O)C1CO1` (configuration not stated): the GI50 is 74.8 µM (inactive) in the test on M19-MEL; > 150 µM (inactive) in the test on DLD-1; 37.2 µM (inactive) in the test on XF498; 85.9 µM (inactive) in the test on SNB-78; 140 µM (inactive) with KM-20L2; 145 µM (inactive) in the test on HOP-18. In addition, the GI50 in the test on DMS-273 was 8.81 µM (inactive).
As for `O=C(Nc1c(Cl)cc([N+](=O)[O-])cc1Cl)C(=O)C(C(=O)c1ccncc1)C1OC(=O)c2ccccc21` (configuration not stated), the GI50 with M19-MEL, with DLD-1, in the test on XF498, in the test on SNB-78, in the test on KM-20L2 and in the test with LXFL 529 was > 100 µM (inactive) throughout. The GI50 in the test with HOP-18, with RXF 631 and in the test on DMS-273 was > 100 µM (inactive) throughout.
As for `Cc1cc2c(cc1C)[n+]([O-])c(C(=O)CC(=O)C(=O)Nc1ccccc1C(C)C)c(C)[n+]2[O-]`, the GI50 with M19-MEL, in the test on XF498, in the test on SNB-78, with KM-20L2, in the test with LXFL 529 and in the test with RXF 631 was > 100 µM (inactive) in each case. In addition, in the test with DMS-273, the GI50 is > 100 µM (inactive).
Consider `COC(=O)c1ccccc1N(C(=O)c1ccccc1)c1ccccc1C`, for which the GI50 with M19-MEL was 48.2 µM (inactive); with DLD-1, 43 µM (inactive); in the test with XF498 it was 22.7 µM (inactive); with KM-20L2, 73.8 µM (inactive); in the test with LXFL 529, 85.5 µM (inactive); in the test on HOP-18, 41.2 µM (inactive). Also, the GI50 in the test with DMS-273 was 47.1 µM (inactive).
Regarding `O=C(N/C=C1\C(=O)Oc2ccccc2C1=O)Nc1ccccc1`, the GI50 with M19-MEL is 55.8 µM (inactive); in the test on DLD-1 it was 42.6 µM (inactive); in the test with XF498 it was 74.3 µM (inactive); in the test with SNB-78, 30.1 µM (inactive); in the test with KM-20L2, > 100 µM (inactive); in the test on LXFL 529 it was 81.1 µM (inactive). The GI50 in the test with HOP-18 was 27.5 µM (inactive); in the test with DMS-273 it was > 100 µM (inactive).
For the compound `CCOC(=O)Nc1ccc(S(=O)(=O)OC)cc1.CCOC(=O)Nc1ccc(S(=O)(=O)OC)cc1.NNC(=O)c1ccncc1`, the GI50 in the test on M19-MEL is > 50 µM (inactive); with DLD-1 it was 9.04 µM (inactive); in the test with SNB-78, > 50 µM (inactive); with KM-20L2 it was > 50 µM (inactive); in the test on LXFL 529 it was > 50 µM (inactive); in the test on HOP-18, > 50 µM (inactive). Further, the GI50 in the test with RXF 631 and in the test on DMS-273 was > 50 µM (inactive) each time.
As to `CCn1c(C)nn2c(=O)c3ccccc3nc2c1=O`, the GI50 in the test on M19-MEL, with DLD-1, with XF498, in the test with SNB-78, in the test on KM-20L2 and in the test on LXFL 529 was > 100 µM (inactive) each time. The GI50 in the test with HOP-18 and in the test on DMS-273 was > 100 µM (inactive) each time.
For `O=C(/C=C1\NC(=O)c2ccccc2N1)c1ccncc1`, the GI50 in the test on M19-MEL, in the test with DLD-1 and with SNB-78 was > 100 µM (inactive) throughout.
Regarding `CC1(C(=O)Nc2ccc3cc4ccccc4cc3c2)CC2(C)CC(C)(C1)C(O)NC2=O` (configuration not stated), the GI50 with M19-MEL was > 100 µM (inactive); in the test on DLD-1 it was 32.9 µM (inactive); in the test with XF498 it was > 100 µM (inactive); in the test on SNB-78, > 100 µM (inactive); with KM-20L2, 85.3 µM (inactive); in the test with LXFL 529, > 100 µM (inactive). For the same compound, the GI50 in the test on HOP-18 was 93.5 µM (inactive); with DMS-273 it was > 100 µM (inactive).
`CN(C)c1ccc(C2CC(=O)C(C#N)=C(c3ccccc3)NN2C)cc1` (configuration not stated): the GI50 in the test with DLD-1 was 5.25 µM (inactive); in the test with XF498 it was 4.55 µM (inactive); in the test on SNB-78 it was 50.4 µM (inactive); in the test on LXFL 529, 8.28 µM (inactive); in the test with HOP-18, 96.6 µM (inactive); in the test with RXF 631, 44.7 µM (inactive).
For `CC(C)c1ccc(O)c(Cc2cc(C(C)C)cc(Cc3cc(C(C)C)ccc3O)c2O)c1`, the GI50 was 1.61 µM (inactive) in the test with M19-MEL; 2.01 µM (inactive) with DLD-1; 1.41 µM (inactive) in the test with XF498; 2.05 µM (inactive) in the test with SNB-78; 2.07 µM (inactive) with KM-20L2; 1.49 µM (inactive) in the test on LXFL 529.
Consider `CC1=NN(c2ccccc2)C(=O)C1/N=N/c1ccc(Br)cc1C` (configuration not stated), for which the GI50 was > 100 µM (inactive) in the test with M19-MEL; > 100 µM (inactive) in the test on DLD-1; 79.6 µM (inactive) in the test with SNB-78; 0.634 µM (active) with KM-20L2; > 100 µM (inactive) with LXFL 529; 3.62 µM (inactive) in the test with HOP-18. In addition, the figures for the GI50 in the test on RXF 631 and in the test with DMS-273 were 32.4 µM (inactive) and > 100 µM (inactive), respectively.
